Source: patent US10034886B2, “GLP-1 receptor modulators” (Celgene International II SÀRL, priority 2014, dated 2018)
Read-outs that look alike come from different tables or passages of the source.

Biological target: T1, GLP-1R (Homo sapiens, UniProt P43220)
T1 construct: host or cells: GLP-1R CRE-bla CHO-K1 cells
Experiment: EC20 GLP-1(9-36) PAM cAMP assay: dose response of compound in the presence of fixed concentration of GLP-1(9-36)
Format: cell-based
Conditions: GLP-1R CRE-bla CHO-K1 cells, read-out: EC20 GLP-1(9-36) PAM EC50
Outline: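 Positive allosteric modulation read as cAMP accumulation: compound titrations (12 points) combined with an EC20 level of GLP-1(9-36) on CHO-K1 GLP-1R CRE-bla cells, IBMX present, 30 min, 37 °C, pH 7.4 buffer. Luminescence converted to cAMP via standards; non-linear fit gave EC50 and Emax.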

[1] = compound dose response with fixed concentration of GLP-1(9-36)
[2] = dose response of compound in presence of fixed concentration of GLP-1(9-36)

T1 sequence (P43220 24-463): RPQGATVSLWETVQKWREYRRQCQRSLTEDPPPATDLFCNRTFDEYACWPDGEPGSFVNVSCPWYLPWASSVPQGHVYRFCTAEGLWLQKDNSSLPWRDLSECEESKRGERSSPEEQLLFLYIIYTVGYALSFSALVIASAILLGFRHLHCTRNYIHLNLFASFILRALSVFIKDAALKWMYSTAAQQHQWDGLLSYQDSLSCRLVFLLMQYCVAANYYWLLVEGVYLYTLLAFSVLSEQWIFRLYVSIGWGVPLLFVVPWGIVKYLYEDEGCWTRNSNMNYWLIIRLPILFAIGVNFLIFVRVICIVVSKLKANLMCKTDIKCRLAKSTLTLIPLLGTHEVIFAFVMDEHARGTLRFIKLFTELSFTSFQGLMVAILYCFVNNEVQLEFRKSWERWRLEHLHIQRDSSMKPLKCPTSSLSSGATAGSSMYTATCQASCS
T1 sequence (P01275 100-127 partner limits assumed): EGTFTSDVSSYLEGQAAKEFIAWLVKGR

| Structure (SMILES) | EC50 [1] | EC50 [2] |
| --- | --- | --- |
| COc1cccc(/C=C/c2cnc(-c3ccc(C[C@H](NC(=O)c4ccc(C(C)(C)C)s4)C(=O)N[C@H](C)C(=O)O)cc3)nc2)c1 [Compound 1263] | 2500 to 5000 nM |  |
| Cc1cccc(-c2ccc(-c3cnc(-c4ccc(C[C@H](NC(=O)c5ccc(C(C)(C)C)s5)C(=O)N[C@H](C)C(=O)O)cc4)nc3)cc2)c1 [Compound 1285] | < 800 nM |  |
| CCCCCCCOc1ccc(N2CCN(c3ccc(C[C@H](NC(=O)c4ccc(C(C)(C)C)cc4)C(=O)N[C@H](C)C(=O)O)cc3)CC2)cc1 [Compound 804] |  | 800 to 2500 nM |
| C[C@@H](NC(=O)[C@H](Cc1ccc(-c2ncc(-c3ccc(C(C)(C)C)cc3)cn2)cc1)NC(=O)c1ccc(C(C)(C)C)cc1)C(=O)O [Compound 720] |  | 2500 to 5000 nM |
| CC(C)CCCOc1ccc(-c2cnc(-c3ccc(C[C@H](NC(=O)c4ccc(C5CC5)cc4)C(=O)N4CC(C(=O)O)C4)cc3)nc2)cc1 [Compound 1233] | 800 to 2500 nM |  |
| CCCCOc1ccc(-c2cnc(-c3ccc(C[C@H](NC(=O)c4ccc(C(C)(C)C)cc4)C(=O)NCCC(=O)O)cc3)nc2)cc1 [Compound 709] |  | 800 to 2500 nM |
| CC(C)(C)c1ccc(C(=O)NC(Cc2ccc(-c3ncc(N4CCC(c5cccc(F)c5)CC4)cn3)cc2)C(=O)N2CC(C(=O)O)C2)s1 (stereo not shown) [Compound 1484] | 800 to 2500 nM |  |
| CCCCCCCOc1ccc(-c2cnc(-c3ccc(C[C@H](NC(=O)c4ccc(C(F)(F)F)s4)C(=O)NC(C(=O)O)C(O)c4ccccc4)cc3)nc2)cc1 (stereo partly shown) [Compound 948] |  | 2500 to 5000 nM |
| C[C@@H](NC(=O)[C@H](Cc1ccc(-c2ncc(-c3ccc(SC4CC4)cc3)cn2)cc1)NC(=O)c1ccc(C(C)(C)C)s1)C(=O)O [Compound 1301] | 5000 to 10000 nM |  |
| COCCCCCOc1ccc(-c2cnc(-c3ccc(C[C@H](NC(=O)c4ccc(C(C)(C)C)cc4)C(=O)NCCC(=O)O)cc3)nc2)cc1 [Compound 471] |  | 5000 to 10000 nM |
| CC(C)Cc1ccc(-c2cnc(-c3ccc(C[C@H](NC(=O)c4ccc(C(C)(C)C)s4)C(=O)N[C@H](C)C(=O)O)cc3)nc2)cc1 [Compound 1021] |  | 2500 to 5000 nM |
| CCCCCCCOc1ccc(-c2cnc(-c3ccc(C[C@H](NC(=O)c4cnc(C(C)(C)C)nc4)C(=O)N4CC(C(=O)O)C4)cc3)nc2)cc1 [Compound 1118] |  | 800 to 2500 nM |
| CCCCCCCOc1ccc(-c2cnc(-c3ccc(C[C@H](NC(=O)c4ccc(C(C)(C)C)cc4)C(=O)NCC(=O)NCCC(=O)O)cc3)nc2)cc1 [Compound 445] |  | < 800 nM |
| CCCCCC(=O)c1ccc(-c2cnc(-c3ccc(C[C@H](NC(=O)c4ccc(C(C)(C)C)cc4)C(=O)NCCC(=O)O)cc3)nc2)cc1 [Compound 690] |  | 2500 to 5000 nM |
| CCCCCCCOc1ccc(-c2nnc(-c3ccc(C[C@H](NC(=O)c4ccc(C(C)(C)C)cc4)C(=O)N4CC(C(=O)O)C4)cc3)s2)cc1 [Compound 1551] | 2500 to 5000 nM |  |
| CCCCCCCOc1ccc(-c2cnc(-c3ccc(C[C@H](NC(=O)c4ccc(OC)cc4)C(=O)N[C@H](C)C(=O)O)cc3)nc2)cc1 [Compound 817] |  | 800 to 2500 nM |
| CCCCCCCOc1ccc(-c2cnc(-c3ccc(C[C@H](NC(=O)c4ccc(C(C)(C)C)cc4)C(=O)N4C[C@H](OC(C)(C)C)C[C@H]4C(=O)O)cc3)nc2)cc1 [Compound 623] |  | 800 to 2500 nM |
| CCCC1CCN(C(=O)C(C)(C)CNc2cnc(-c3ccc(C[C@H](NC(=O)c4ccc(C(C)(C)C)s4)C(=O)N4CC(C(=O)O)C4)cc3)nc2)CC1 [Compound 1497] | 2500 to 5000 nM |  |
| CCCCCCCOc1ccc(-c2cnc(-c3ccc(C[C@H](NC(=O)c4ccc(OC)cc4)C(=O)N4CC[C@H](C(=O)O)C4)cc3)nc2)cc1 [Compound 846] |  | 2500 to 5000 nM |
| CC(C)(C)c1ccc(C(=O)N[C@@H](Cc2ccc(-c3ncc(-c4nc(-c5ccc(C(C)(C)C)cc5)no4)cn3)cc2)C(=O)NCCC(=O)O)cc1 [Compound 745] |  | 800 to 2500 nM |
| CC(C)(C)c1ccc(C(=O)N[C@@H](Cc2ccc(-c3ncc(N4CCC(c5ccc(CC#N)cc5)CC4)cn3)cc2)C(=O)N2CC(C(=O)O)C2)s1 [Compound 1500] | 5000 to 10000 nM |  |
| CCCCCCCOc1ccc(-c2cnc(-c3ccc(C[C@H](NC(=O)c4ccc(CC)cc4)C(=O)N4CC(C(=O)O)C4)cc3)nc2)cc1 [Compound 1108] |  | < 800 nM |
